Test system: AVL3-EBV B cells
Assay: Peptide sensitization of EBV-transformed B cells to lysis by CTL 13 (51Cr release)
Assay type: cell-based, human
Conditions: 51Cr-labeled cells incubated 30 min at 20° C. with peptide; effector:target 5:1; chromium release after 4 hr; read-out: half-maximal effect for sensitizing AVL3-EBV B cells to lysis by CTL clone 13
Description: Sensitivity of target cells to lysis by the CTL was evaluated by a standard ^51Cr-release assay over 4 hr. Some lysis assays were performed in the presence of the following murine monoclonal antibodies: BB7.2, an IgG2b anti-HLA-A2 (from the ATCC), and OKM1, an IgG2b anti-CD11b (from the ATCC).
One of them, MLAVISCAV (SEQ ID NO:9), was contained within an open reading frame starting with an initiation codon preceeded by a canonical Kozak consensus sequence. This peptide sensitized AVL3-EBV B cells to lysis by CTL clone 13, with an half-maximal effect at 5 nM (FIG. 4). ^51Cr-labeled EBV-transformed B cells from patient AVL3 were incubated for 30 min at 20° C. with the indicated concentrations of peptide. CTL 13 were then added at an effector:target ratio of 5:1, and chromium release was measured after 4 hr.

MLAVISCAV
EC50: 5 nM
